{
  "source": "ChEMBL document CHEMBL6115010",
  "about": "“Targeting glioma with heteroaromatic alkaloids: A review of potential therapeutics” (Bioorg Med Chem, 2025)",
  "key": {"U-87 MG [1]": {"test_system": "U-87 MG", "assay": "Antitumor activity against human U-87 MG cells implanted with chicken egg assessed as reduction in tumor weight at 10 uM measured after 7 days by microscopic analysis (reference value: 27.87+/-4.7 mg)", "format": "functional, U-87MG ATCC", "details": "time 7 day"}, "C6 [2]": {"test_system": "C6", "assay": "Antiproliferative activity against rat C6 cells assessed as reduction in cell viability measured for 96 hrs by MTT assay", "format": "functional, cell-based", "details": "C6, 96 h"}, "U-87 MG [3]": {"test_system": "U-87 MG", "assay": "Antiproliferative activity against human U-87 MG cells assessed as reduction in cell viability measured for 96 hrs by MTT assay", "format": "functional, cell-based, U-87MG ATCC"}, "SNB-19": {"test_system": "SNB-19", "assay": "Antiproliferative activity against human SNB-19 cells assessed as reduction in cell viability measured for 96 hrs by MTT assay", "format": "functional, cell-based", "details": "SNB-19, 96 h"}, "U-87 MG [4]": {"test_system": "U-87 MG", "assay": "Antitumor activity against human U-87MG cells xenografted in athymic nude mouse model assessed as tumor growth inhibition at 30 mg/kg, ip administered once daily for 12 days relative to control", "format": "functional, U-87MG ATCC", "details": "288 h, time 12 day, read-out: TGI"}, "C6 [5]": {"test_system": "C6", "assay": "Antitumor activity against rat C6 cells implanted in athymic nude mouse model assessed as tumor growth inhibition at 30 mg/kg, ip administered once daily for 12 days and measured after 34 days relative to control", "format": "functional", "details": "C6, 816 h, time 34 day, read-out: TGI"}, "[6]": {"assay": "Antiproliferative activity against mouse GL26 cells assessed as reduction in cell viability measured for 96 hrs by MTT assay", "format": "functional, cell-based", "details": "GL26, 96 h"}, "C6 [7]": {"test_system": "C6", "assay": "Antitumor activity against rat C6 cells implanted in athymic nude mouse model assessed as tumor growth inhibition at 30 mg/kg, sc administered once daily for 12 days and measured after 34 days relative to control", "format": "functional", "details": "C6, 288 h, time 12 day, read-out: TGI"}, "9L": {"test_system": "9L", "assay": "Antiproliferative activity against rat 9L cells assessed as reduction in cell viability measured for 96 hrs by MTT assay", "format": "functional, cell-based"}, "T98G [8]": {"test_system": "T98G", "assay": "Cytotoxicity against human T98G cells assessed as inhibition of cell growth measured for 72 hrs by MTT assay", "format": "functional, cell-based"}, "U-251 [9]": {"test_system": "U-251", "assay": "Antiproliferative activity against human U-251MG cells assessed as inhibition of cell growth measured for 72 hrs by MTT assay", "format": "functional, cell-based", "details": "U-251, 72 h"}, "U-251 [10]": {"test_system": "U-251", "assay": "Cytotoxicity against human U-251MG cells assessed as inhibition of cell growth measured for 72 hrs by MTT assay", "format": "functional, cell-based", "details": "U-251, 72 h"}, "T98G [11]": {"test_system": "T98G", "assay": "Antiproliferative activity against human T98G cells assessed as inhibition of cell growth measured for 72 hrs by MTT assay", "format": "functional, cell-based"}, "C6 [12]": {"test_system": "C6", "assay": "Cytotoxicity against rat C6 cells assessed as reduction in cell viability incubated for 48 hrs by trypan blue dye based assay", "format": "functional", "details": "C6, 48 h"}, "U-87 MG [13]": {"test_system": "U-87 MG", "assay": "Antiproliferative activity against human U-87-MG cells", "format": "functional, cell-based, U-87MG ATCC"}, "U-251 [14]": {"test_system": "U-251", "assay": "Antiproliferative activity against human U-251MG cells", "format": "functional, cell-based"}, "T98G [15]": {"test_system": "T98G", "assay": "Cytotoxicity against human T98G cells assessed as reduction in cell viability at 400 uM measured for 24 hrs relative to control", "format": "functional"}, "SK-N-SH [16]": {"test_system": "SK-N-SH", "assay": "Induction of apoptosis in human SK-N-SH cells assessed as early apoptotic cells at 100 micromol/L incubated for 48 hrs by Annexin V-FITC/Propidium Iodide staining based flow cytometry analysis (reference value: 10.3 %)", "format": "functional", "details": "dose 100 µmol/L, at 100 µM"}, "SH-SY5Y": {"test_system": "SH-SY5Y", "assay": "Cytotoxicity against human SH-SY5Y cells assessed as reduction in cell viability incubated for 24 hrs by MTT assay", "format": "functional, cell-based"}, "U-251 [17]": {"test_system": "U-251", "assay": "Cytotoxicity against human U-251MG cells assessed as cell growth inhibition incubated for 24 hrs by MTT assay", "format": "functional, cell-based", "details": "U-251, 24 h"}, "U-87 MG [18]": {"test_system": "U-87 MG", "assay": "Cytotoxicity against human U-87 MG cells assessed as reduction in cell viability at 400 uM measured for 24 hrs relative to control", "format": "functional, U-87MG ATCC"}, "SK-N-SH [19]": {"test_system": "SK-N-SH", "assay": "Induction of apoptosis in human SK-N-SH cells assessed as early apoptotic cells at 200 micromol/L incubated for 48 hrs by Annexin V-FITC/Propidium Iodide staining based flow cytometry analysis (reference value: 10.3 %)", "format": "functional", "details": "dose 200 µmol/L, at 200 µM"}, "T98G [20]": {"test_system": "T98G", "assay": "Antiproliferative activity against human T98G cells assessed as inhibition of cell growth measured for 72 hrs", "format": "functional, cell-based"}, "U-251 [21]": {"test_system": "U-251", "assay": "Antiproliferative activity against human U-251MG cells assessed as inhibition of cell growth measured for 72 hrs", "format": "functional, cell-based", "details": "U-251, 72 h"}, "U-87 MG [22]": {"test_system": "U-87 MG", "assay": "Antiproliferative activity against human U-87 MG cells assessed as inhibition of cell growth measured for 72 hrs", "format": "functional, cell-based, U-87MG ATCC"}, "A 172": {"test_system": "A 172", "assay": "Antiproliferative activity against human A-172 cells assessed as inhibition of cell growth measured for 72 hrs", "format": "functional, cell-based", "details": "A 172, 72 h"}, "[23]": {"assay": "Antiproliferative activity against human D-54MG cells assessed as inhibition of cell growth measured for 72 hrs", "format": "functional, cell-based", "details": "D54MG"}},
  "data": [
    {"smiles": "COc1cc2c3cc1Oc1c(OC)c(OC)cc4c1[C@@H](Cc1ccc(O)c(c1)Oc1ccc(cc1)C[C@@H]3N(C)CC2)N(C)CC4", "note": "[BERBAMINE]", "values": [
      {"measurement": "Activity", "setting": "U-87 MG [1]", "value": 5.28, "unit": "mg"}
    ]},
    {"smiles": "CC(C)=CCC/C(C)=C/CC/C(C)=C/CN1C(=O)c2cccc(O)c2Nc2c(O)cc(O)cc21", "note": "[DIAZEPINOMICIN]", "values": [
      {"measurement": "IC50", "setting": "C6 [2]", "value": 4.3, "unit": "µM"},
      {"measurement": "IC50", "setting": "U-87 MG [3]", "value": 10.9, "unit": "µM"},
      {"measurement": "IC50", "setting": "SNB-19", "value": 5.3, "unit": "µM"},
      {"measurement": "inhibition in vivo at 30 mg/kg", "setting": "U-87 MG [4]", "value": 36, "unit": "%"},
      {"measurement": "inhibition in vivo at 30 mg/kg", "setting": "C6 [5]", "value": 66, "unit": "%"},
      {"measurement": "IC50", "setting": "[6]", "value": 8.9, "unit": "µM"},
      {"measurement": "inhibition in vivo at 30 mg/kg", "setting": "C6 [7]", "value": 60, "unit": "%"},
      {"measurement": "IC50", "setting": "9L", "value": 8.3, "unit": "µM"}
    ]},
    {"smiles": "COc1cc(/C=C/C(=O)NCCc2c[nH]c3ccc(O)cc23)ccc1O", "note": "[N-FERULOYL SEROTONIN]", "values": [
      {"measurement": "IC50", "setting": "T98G [8]", "value": 193, "unit": "µM"},
      {"measurement": "IC50", "setting": "U-251 [9]", "value": 590, "unit": "µM"},
      {"measurement": "IC50", "setting": "U-251 [10]", "value": 238, "unit": "µM"},
      {"measurement": "IC50", "setting": "T98G [11]", "value": 730, "unit": "µM"}
    ]},
    {"smiles": "COc1cc(C2(O)C(=O)N=C(N)N2C)ccc1O", "note": "(configuration not stated)", "values": [
      {"measurement": "IC50", "setting": "C6 [12]", "value": 155, "unit": "µM"}
    ]},
    {"smiles": "C[C@@H](O)c1cc2ccncc2c(=O)[nH]1", "values": [
      {"measurement": "IC50", "setting": "U-87 MG [13]", "value": 7.9, "unit": "µM"},
      {"measurement": "IC50", "setting": "U-251 [14]", "value": 13.4, "unit": "µM"}
    ]},
    {"smiles": "Nc1ncnc2c1ncn2[C@@H]1O[C@H](CO)C[C@H]1O", "note": "[CORDYCEPIN]", "values": [
      {"measurement": "Activity", "setting": "T98G [15]", "value": 76, "unit": "%"},
      {"measurement": "Activity", "setting": "SK-N-SH [16]", "value": 29.8, "unit": "%"},
      {"measurement": "IC50", "setting": "SH-SY5Y", "value": 175, "unit": "µM"},
      {"measurement": "IC50", "setting": "U-251 [17]", "value": 250, "unit": "µM"},
      {"measurement": "Activity", "setting": "U-87 MG [18]", "value": 35, "unit": "%"},
      {"measurement": "Activity", "setting": "SK-N-SH [19]", "value": 29.8, "unit": "%"}
    ]},
    {"smiles": "O=C(/C=C/c1ccc(O)cc1)NCCc1c[nH]c2ccc(O)cc12", "note": "[N-P-COUMAROYL SEROTONIN]", "values": [
      {"measurement": "IC50", "setting": "T98G [20]", "value": 68, "unit": "µM"},
      {"measurement": "IC50", "setting": "U-251 [21]", "value": 77, "unit": "µM"},
      {"measurement": "IC50", "setting": "U-87 MG [22]", "value": 48, "unit": "µM"},
      {"measurement": "IC50", "setting": "A 172", "value": 62, "unit": "µM"},
      {"measurement": "IC50", "setting": "[23]", "value": 81, "unit": "µM"}
    ]}
  ]
}
